Assay: Particle size measurement of milled suspension (MALVERN MASTERSIZER 3000, in deionized water)
Assay type: physicochemical
Settings: mean; suspension of Example 1 milled 20 minutes with 700 micron polystyrene grinding media (Example 2); measured in deionized water
Protocol: The suspension from Example 1 (6-35 w/v %) was milled in a NETZSCH MINICER bead mill using 700 micron polystyrene grinding media (40-85% media load). The mixture was milled at a speed of 3.1-5.5 m/s at 15-25° C. for 20 minutes.
Following milling, particle size was measured, in deionized water, using a MALVERN MASTERSIZER 3000 particle size analyzer. The mean milled paliperidone palmitate particle size distribution of the suspension was D90 less than 20 micron, D50 less than 10 micron, and a D10 less than 3 micron (FIG. 1).

particle size distribution D10: less than 3 micron
particle size distribution D50: less than 10 micron
particle size distribution D90: less than 20 micron
Structure (SMILES): CCCCCCCCCCCCCCCC(=O)OC1CCCn2c1nc(C)c(CCN1CCC(c3noc4cc(F)ccc34)CC1)c2=O (stereo not drawn) [paliperidone palmitate, 3-(2-(4-(6-fluoro-3a,7a-dihydrobenzo[d]isoxazol-3-yl)piperidin-1-yl)ethyl)-2-methyl-4-oxo-6,7,8,9-tetrahydro-4H-pyrido[1,2-a]pyrimidin-9-yl palmitate]

— patent US20190183896A1, “ONE STEP MILLING PROCESS FOR PREPARING MICRONIZED PALIPERIDONE ESTERS” (SpecGX LLC, priority 2017, published 2019)
